Assay results reported in ChEMBL document CHEMBL3352350, “Syntheses and structure-activity relationships in cytotoxicities of 13-substituted quaternary coptisine derivatives” (Eur J Med Chem, 2014).

Assays:
[1] = Cytotoxicity against human HCT8 cells assessed as growth inhibition rate at 0.1 to 100 umol/L after 96 hrs by MTT assay; assay type: functional, HCT-8
[2] = Cytotoxicity against human C33A cells assessed as growth inhibition rate after 96 hrs by MTT assay; assay type: functional, cell-based; conditions: C-33-A
[3] = Cytotoxicity against human Bel7402 cells assessed as growth inhibition rate after 96 hrs by MTT assay; assay type: functional, cell-based; conditions: Bel-7402, 96 h
[4] = Cytotoxicity against human C33A cells assessed as growth inhibition rate at 0.1 to 100 umol/L after 96 hrs by MTT assay; assay type: functional, C-33-A
[5] = Cytotoxicity against human Bel7402 cells assessed as growth inhibition rate at 0.1 to 100 umol/L after 96 hrs by MTT assay; assay type: functional, Bel-7402
[6] = system: A549; test: Cytotoxicity against human A549 cells assessed as growth inhibition rate after 96 hrs by MTT assay; assay type: functional, cell-based; conditions: A549, 96 h
[7] = Cytotoxicity against human HCT8 cells assessed as growth inhibition rate after 96 hrs by MTT assay; assay type: functional, cell-based; conditions: HCT-8, 96 h
[8] = system: A549; test: Cytotoxicity against human A549 cells assessed as growth inhibition rate at 0.1 to 100 umol/L after 96 hrs by MTT assay; assay type: functional
[9] = system: HCT-8; test: Ratio of 5-fluorouracil IC50 to compound IC50 for human HCT8 cells assessed as growth inhibition rate after 96 hrs by MTT assay; assay type: functional
[10] = system: A549; test: Ratio of 5-fluorouracil IC50 to compound IC50 for human A549 cells assessed as growth inhibition rate after 96 hrs by MTT assay; assay type: functional
[11] = system: Bel-7402; test: Ratio of 5-fluorouracil IC50 to compound IC50 for human Bel7402 cells assessed as growth inhibition rate after 96 hrs by MTT assay; assay type: functional
[12] = system: C-33-A; test: Ratio of 5-fluorouracil IC50 to compound IC50 for human C33A cells assessed as growth inhibition rate after 96 hrs by MTT assay; assay type: functional
[13] = Cytotoxicity against human BGC823 cells assessed as growth inhibition rate after 96 hrs by MTT assay; assay type: functional, cell-based; conditions: BGC-823, 96 h

| SMILES | growth inhibition (GI) [1] [%] | IC50 [2] | IC50 [3] | growth inhibition (GI) [4] [%] | growth inhibition (GI) [5] [%] | IC50 [6] | IC50 [7] | growth inhibition (GI) [8] [%] | Ratio IC50 [9] | Ratio IC50 [10] | Ratio IC50 [11] | Ratio IC50 [12] | IC50 [13] [µM] |
| --- | --- | --- | --- | --- | --- | --- | --- | --- | --- | --- | --- | --- | --- |
| C1=C2c3cc4c(cc3CCN2Cc2c1ccc1c2OCO1)OCO4 | 30.88 | > 5 µg/mL | > 5 µg/mL | -10.65 | 27.27 | > 5 µg/mL | > 5 µg/mL | 32.09 |  |  |  |  |  |
| Cc1c2[n+](cc3c4c(ccc13)OCO4)CCc1cc3c(cc1-2)OCO3.[Cl-] | 35.62 | > 5 µg/mL | > 5 µg/mL | -7.22 | 2.43 | > 5 µg/mL | > 5 µg/mL | 42.83 |  |  |  |  |  |
| CCc1c2[n+](cc3c4c(ccc13)OCO4)CCc1cc3c(cc1-2)OCO3.[Cl-] | 39.7 | > 5 µg/mL | > 5 µg/mL | -7.45 | 10.19 | > 5 µg/mL | > 5 µg/mL | 41.74 |  |  |  |  |  |
| CCCc1c2[n+](cc3c4c(ccc13)OCO4)CCc1cc3c(cc1-2)OCO3.[Cl-] | 40.68 | > 5 µg/mL | > 5 µg/mL | -7.69 | -23.7 | > 5 µg/mL | > 5 µg/mL | 45.12 |  |  |  |  |  |
| CCCCc1c2[n+](cc3c4c(ccc13)OCO4)CCc1cc3c(cc1-2)OCO3.[Cl-] | 32.57 | > 5 µg/mL | > 5 µg/mL | -6.66 | 21.81 | > 5 µg/mL | > 5 µg/mL | 32.79 |  |  |  |  |  |
| CCCCCc1c2[n+](cc3c4c(ccc13)OCO4)CCc1cc3c(cc1-2)OCO3.[Cl-] | 59.02 | > 5 µg/mL | > 5 µg/mL | -5.79 | 5.82 | > 5 µg/mL | 6.93 µM | 49.34 |  |  |  |  |  |
| CC(C)CCc1c2[n+](cc3c4c(ccc13)OCO4)CCc1cc3c(cc1-2)OCO3.[Cl-] | 30.75 | > 5 µg/mL | > 5 µg/mL | 48.99 | -2.18 | > 5 µg/mL | > 5 µg/mL | 38.49 |  |  |  |  |  |
| CCCCCCc1c2[n+](cc3c4c(ccc13)OCO4)CCc1cc3c(cc1-2)OCO3.[Cl-] | 59.24 | > 5 µg/mL | 3.05 µM | 52.51 | 74.26 | 5.57 µM | 6.55 µM | 60.71 |  |  |  |  |  |
| CCCCCCCc1c2[n+](cc3c4c(ccc13)OCO4)CCc1cc3c(cc1-2)OCO3.[Cl-] | 61.02 | 6.94 µM | 1.92 µM | 63.75 | 86.6 | 2.58 µM | 5.86 µM | 71.89 |  |  |  |  |  |
| CCCCCCCCc1c2[n+](cc3c4c(ccc13)OCO4)CCc1cc3c(cc1-2)OCO3.[Cl-] | 65.54 | 7.31 µM | 1.43 µM | 63.28 | 89.32 | 1.88 µM | 3.33 µM | 73.99 |  |  |  |  |  |
| CCCCCCCCCc1c2[n+](cc3c4c(ccc13)OCO4)CCc1cc3c(cc1-2)OCO3.[Cl-] | 43.24 | > 5 µg/mL | > 5 µg/mL | -16.26 | 43.46 | > 5 µg/mL | > 5 µg/mL | 49.29 |  |  |  |  |  |
| CCCCCCCCCCc1c2[n+](cc3c4c(ccc13)OCO4)CCc1cc3c(cc1-2)OCO3.[Cl-] | 71.93 | 4.31 µM | 1.43 µM | 61.31 | 89.98 | 1.83 µM | 1.81 µM | 75.26 |  |  |  |  |  |
| CCCCCCCCCCCc1c2[n+](cc3c4c(ccc13)OCO4)CCc1cc3c(cc1-2)OCO3.[Cl-] | 92.7 | 1.57 µM | 1.22 µM | 86.84 | 91.22 | 0.61 µM | 0.82 µM | 94.28 | 4 | 11 | 2 | 3 |  |
| CCCCCCCCCCCCc1c2[n+](cc3c4c(ccc13)OCO4)CCc1cc3c(cc1-2)OCO3.[Cl-] | 91.28 | 1.43 µM | 1.32 µM | 84.73 | 87.63 | 0.59 µM | 1.03 µM | 94.03 |  |  |  |  |  |
| Fc1cccc(Cc2c3[n+](cc4c5c(ccc24)OCO5)CCc2cc4c(cc2-3)OCO4)c1.[Cl-] | 4.59 |  | > 10 µM |  | 4.06 | > 10 µM | > 10 µM | 6.81 |  |  |  |  | > 10 |
| Fc1ccccc1Cc1c2[n+](cc3c4c(ccc13)OCO4)CCc1cc3c(cc1-2)OCO3.[Cl-] | 26.26 |  | > 10 µM |  | 6.94 | > 10 µM | > 10 µM | 18.8 |  |  |  |  | > 10 |
| Fc1ccc(Cc2c3[n+](cc4c5c(ccc24)OCO5)CCc2cc4c(cc2-3)OCO4)c(F)c1.[Cl-] | 1.19 |  | > 10 µM |  | 5.45 | > 10 µM | > 10 µM | 5.86 |  |  |  |  | > 10 |
| FC(F)(F)c1cccc(Cc2c3[n+](cc4c5c(ccc24)OCO5)CCc2cc4c(cc2-3)OCO4)c1.[Cl-] | -1.37 |  | > 10 µM |  | 5.98 | > 10 µM | > 10 µM | 7.78 |  |  |  |  | > 10 |
| FC(F)(F)c1cc(Cc2c3[n+](cc4c5c(ccc24)OCO5)CCc2cc4c(cc2-3)OCO4)cc(C(F)(F)F)c1.[Cl-] | -5.72 |  | > 10 µM |  | 3.61 | > 10 µM | > 10 µM | 3.45 |  |  |  |  | > 10 |
| N#Cc1ccc(Cc2c3[n+](cc4c5c(ccc24)OCO5)CCc2cc4c(cc2-3)OCO4)cc1.[Cl-] | 3.69 |  | > 10 µM |  | 4.03 | > 10 µM | > 10 µM | 2 |  |  |  |  | > 10 |
| O=[N+]([O-])c1ccc(Cc2c3[n+](cc4c5c(ccc24)OCO5)CCc2cc4c(cc2-3)OCO4)cc1.[Cl-] | -3.7 |  | > 10 µM |  | -0.12 | > 10 µM | > 10 µM | 2.27 |  |  |  |  | > 10 |
| COc1ccc(Cc2c3[n+](cc4c5c(ccc24)OCO5)CCc2cc4c(cc2-3)OCO4)cc1.[Cl-] | 10.21 |  | > 10 µM |  | 5.99 | > 10 µM | > 10 µM | 11.53 |  |  |  |  | > 10 |
| Cc1ccc(Cc2c3[n+](cc4c5c(ccc24)OCO5)CCc2cc4c(cc2-3)OCO4)cc1.[Cl-] | 15.16 |  | > 10 µM |  | 12.33 | > 10 µM | > 10 µM | 26.58 |  |  |  |  | > 10 |
| [Cl-].c1ccc2cc(Cc3c4[n+](cc5c6c(ccc35)OCO6)CCc3cc5c(cc3-4)OCO5)ccc2c1 | 8.33 |  | > 10 µM |  | 11.78 | > 10 µM | > 10 µM | 32.22 |  |  |  |  | > 10 |
| CCOC(=O)c1c2[n+](cc3c4c(ccc13)OCO4)CCc1cc3c(cc1-2)OCO3.[Cl-] | 4 |  | > 10 µM |  | 4.05 | > 10 µM | > 10 µM | 9.7 |  |  |  |  | > 10 |
| CCOC(=O)Cc1c2[n+](cc3c4c(ccc13)OCO4)CCc1cc3c(cc1-2)OCO3.[Cl-] | -9.3 |  | > 10 µM |  | 8.43 | > 10 µM | > 10 µM | 1.25 |  |  |  |  | > 10 |
| [Cl-].c1c2c(cc3c1OCO3)-c1cc3ccc4c(c3c[n+]1CC2)OCO4 [COPTISINE CHLORIDE] | 62.06 | > 14.1 µM | > 14.1 µM | -10.71 | 12.24 | > 14.1 µM | 5.59 µM | 49.91 |  |  |  |  |  |
| O=c1[nH]cc(F)c(=O)[nH]1 [FLUOROURACIL] | 80.36 | 4.61 µM | 2.23 µM | 56.06 | 78.43 | 6.69 µM | 3.54 µM | 72.25 |  |  |  |  |  |
